Assay results published in US20180371076A1, “MATERNAL TH17 CELLS AND PSYCHIATRIC DISORDERS” (New York University, priority 2017, published 2018).
“Also recorded” adds a separate entry of the source.

What was measured:
IL-6 = IL-6 ELISA of maternal serum; type: in vivo, mouse; conditions: poly(I:C) 20 mg/kg i.p. at E12.5, 3 h, vs PBS
Experimental: (§1) Cell preparation, Flow cytometry, ELISA. Embryos at each implantation site were dissected in ice-cold HBSS containing Ca^2+ and Mg^2+. Myometrium was first peeled off of the decidua and embryos were discarded. Dissected decidual and placental tissues were then minced and enzymatically dissociated in HBSS containing 0.28 Wunsch units (WU)/mL Liberase (Roche) and 30 μg/ml DNase I (Roche) for 30 min at 37° C. with intermittent mixing. Digested tissues were washed in PBS containing 5 mM EDTA and 5% fetal bovine serum and then incubated again in the same buffer for 15 min at 37° C. prior to filtration through a cell strainer. After separation on a discontinuous 40% & 80% Percoll gradient, the mononuclear cell fraction was treated with ACK lysis buffer (Lonza). Mononuclear cells (1×10^6 cells/mL) were stimulated with phorbol 12-myristate 13-acetate (PMA, 50 ng/mL; Sigma), ionomycin (500 ng/mL; Sigma) in T cell media: RPMI 1640 (Invitrogen) supplemented with 10% (v/v) heat-inactivated FBS (Hyclone), 50 U penicillin-streptomycin (Invitrogen), 2 mM glutamine, and 50 μM β-mercaptoethanol. Cell culture supernatant was used for ELISA analyses. For flow cytometry, cells were incubated for 5 h with PMA, ionomycin and GolgiStop (BD). […] For ELISA with sera and placenta/decidua extract, IL-6 (Ebioscience), IL-17a (Biolgened), and IL-10 (BD) were measured according to the manufacturer's protocol. […]

IL-17a [1] = assay: IL-17a ELISA of maternal sera and placenta/decidua extract; type: in vivo, mouse; conditions: for maternal serum IL-17a: serum at E14.5-E15.5, vs PBS
Experimental: Cell preparation, Flow cytometry, ELISA. Embryos at each implantation site were dissected in ice-cold HBSS containing Ca^2+ and Mg^2+. Myometrium was first peeled off of the decidua and embryos were discarded. Dissected decidual and placental tissues were then minced and enzymatically dissociated in HBSS containing 0.28 Wunsch units (WU)/mL Liberase (Roche) and 30 μg/ml DNase I (Roche) for 30 min at 37° C. with intermittent mixing. Digested tissues were washed in PBS containing 5 mM EDTA and 5% fetal bovine serum and then incubated again in the same buffer for 15 min at 37° C. prior to filtration through a cell strainer. After separation on a discontinuous 40% & 80% Percoll gradient, the mononuclear cell fraction was treated with ACK lysis buffer (Lonza). Mononuclear cells (1×10^6 cells/mL) were stimulated with phorbol 12-myristate 13-acetate (PMA, 50 ng/mL; Sigma), ionomycin (500 ng/mL; Sigma) in T cell media: RPMI 1640 (Invitrogen) supplemented with 10% (v/v) heat-inactivated FBS (Hyclone), 50 U penicillin-streptomycin (Invitrogen), 2 mM glutamine, and 50 μM β-mercaptoethanol. Cell culture supernatant was used for ELISA analyses. For flow cytometry, cells were incubated for 5 h with PMA, ionomycin and GolgiStop (BD). Intracellular cytokine staining was performed according to the manufacturer's protocol (Cytofix/Cytoperm buffer set from BD with alexa647-conjugated anti-IL-17a (eBioscience) and PE-conjugated anti-IFN-γ). LSR II (BD Biosciences) and FlowJo software (Tree Star) were used for flow cytometry and analysis. Dead cells were excluded using the Live/Dead fixable aqua dead cell stain kit (Invitrogen). Placenta/decidua extract were prepared by homogenizing samples in Tissue Extraction Reagent I (Invitrogen, FN0071) in the presence of protease inhibitor cocktail (Roche, 11873580001) on ice using pestles. The homogenates were centrifuged at 4° C. at 13,000 rpm for 20 min, and the supernatants were aliquotted and frozen at −80° C. For ELISA with sera and placenta/decidua extract, IL-6 (Ebioscience), IL-17a (Biolgened), and IL-10 (BD) were measured according to the manufacturer's protocol.
Cell preparation, Flow cytometry, ELISA Embryos at each implantation site were dissected in ice-cold HBSS containing Ca2+ and Mg2+ (Gibco). Myometrium was first peeled off of the decidua and embryos were discarded. Dissected decidual and placental tissues were then minced and enzymatically dissociated in HBSS containing 0.28 Wunsch units (WU)/mL Liberase (Roche) and 30 μg/mL DNase I (Roche) for 30 min at 37° C. with intermittent mixing. Digested tissues were washed in PBS containing 5 mM EDTA and 5% fetal bovine serum and then incubated again in the same buffer for 15 min at 37° C. prior to filtration through a cell strainer. After separation on a discontinuous 40% & 80% Percoll gradient, the mononuclear cell fraction was treated with ACK lysis buffer (Lonza). Mononuclear cells (1×10^6 cells/mL) were cultured for 24 h with or without phorbol 12-myristate 13-acetate (PMA, 50 ng/mL; Sigma) and ionomycin (500 ng/mL; Sigma) in T cell media: RPMI 1640 (Invitrogen) supplemented with 10% (v/v) heat-inactivated FBS (Hyclone), 50 U penicillin-streptomycin (Invitrogen), 2 mM glutamine, and 50 μM β-mercaptoethanol. Cell culture supernatant was used for ELISA analyses. Unstimulated cells were used to prepare total RNA for qPCR analyses. For flow cytometry, cells were incubated for 5 h with PMA, ionomycin and GolgiStop (BD). […]

IFN-β = IFN-β ELISA of maternal serum; type: in vivo, mouse; conditions: poly(I:C) at E12.5, 3 h, vs PBS
Experimental: (§2) Cell preparation, Flow cytometry, ELISA Embryos at each implantation site were dissected in ice-cold HBSS containing Ca2+ and Mg2+ (Gibco). Myometrium was first peeled off of the decidua and embryos were discarded. Dissected decidual and placental tissues were then minced and enzymatically dissociated in HBSS containing 0.28 Wunsch units (WU)/mL Liberase (Roche) and 30 μg/mL DNase I (Roche) for 30 min at 37° C. with intermittent mixing. Digested tissues were washed in PBS containing 5 mM EDTA and 5% fetal bovine serum and then incubated again in the same buffer for 15 min at 37° C. prior to filtration through a cell strainer. […] Intracellular cytokine staining was performed according to the manufacturer's protocol (Cytofix/Cytoperm buffer set from BD with Pacific Blue-conjugated CD4, FITC or PerCP-Cy5.5-conjugated CD8, APC4 Cy7-conjugated TCR-β, PE-Cy7-conjugated anti-IL-17a, PE-conjugated anti-IFN-γ, PECy7-conjugated anti-CD25 and PE-conjugated Foxp3 (eBioscience). LSR II (BD Biosciences) and FlowJo software (Tree Star) were used for flow cytometry and analysis. Dead cells were excluded using the Live/Dead fixable aqua dead cell stain kit (Invitrogen). For ELISA with sera and placenta/decidua extract, IL-6 (Ebioscience), IL-17a, TNF-α, IL-1β, IFN-β (Biolgened), and IL-10 (BD) were measured according to the manufacturer's protocol.

[2] = test system: cortex of the fetal brain; assay: Cortical development: SATB2/TBR1/CTIP2 immunohistochemistry of fetal and adult offspring brain; type: in vivo, mouse; conditions: offspring of MIA vs PBS-treated mothers
TNF-α = TNF-α ELISA of maternal serum; type: in vivo, mouse; conditions: poly(I:C) at E12.5, 3 h, vs PBS
Experimental: as §2

IL-10 = IL-10 ELISA of maternal serum and placenta/decidua extracts; type: in vivo, mouse; conditions: poly(I:C) at E12.5
Experimental: as §1

Th17 cells = assay: Flow cytometry of placenta/decidua CD4+ T cells: Th17; type: in vivo, mouse; conditions: poly(I:C) vs PBS treatment, pregnant dams
Experimental: as §2

IL-17a mRNA = assay: Real-time PCR of IL-17a mRNA (placenta/decidua mononuclear cells, fetal brain); type: cell-based, mouse
IL-17a [3] = assay: IL-17a secretion by ex vivo cultured mononuclear cells (PMA/ionomycin); type: cell-based, mouse; conditions: vs PBS
Experimental: as §1

Molecule | serum IL-6 (IL-6) | IL-17a in placenta/decidua extracts (IL-17a [1]; PBS- or poly(I:C)-treated mothers) | time until serum IL-17a is detected after injection (IL-17a [1]; poly(I:C) at E12.5) [days] | maternal serum IL-17a (IL-17a [1]; poly(I:C) at E12.5) | maternal serum IL-17a (IL-17a [1]; poly(I:C) at E12.5, listed as Poly(I:C)) | serum IL-17a at later embryonic stages (IL-17a [1]; poly(I:C) injected mothers) | serum IL-17a at E14.5 (IL-17a [1]; poly(I:C) into pregnant dams lacking IL-6 (IL-6 KO)) | serum IFN-β (IFN-β) | cortical organization by Golgi staining [2] | serum TNF-α (TNF-α) | IL-10 in serum and placenta/decidua extracts (IL-10) | placenta/decidua-associated Th17 cells (Th17 cells) | IL-17a mRNA in placenta- and decidua-associated mononuclear cells (IL-17a mRNA; isolated at E14.5, cultured 24 h) | IL-17a mRNA in fetal brain at E14.5 (IL-17a mRNA; regardless of poly(I:C) injection) | IL-17a secretion by placenta/decidua-associated mononuclear cells (IL-17a [3]; cells from poly(I:C)-treated dams, ex vivo PMA and ionomycin) | IL-17a secretion by small intestine mononuclear cells (IL-17a [3]; cells from poly(I:C)-treated pregnant dams) | maternal serum IL-17a at E14.5 (IL-17a [1]; injection into wild-type (WT) mothers)
poly(I:C) | strong induction | could not be detected | 2 to 3 | strong increase | further increase | continue to rise until E19.5 | failed to increase | strong induction | disorganized cortical regions | strong induction | not affected; also recorded: did not affect | increased | strongly up-regulated | not detected | increased IL-17a secretion; also recorded: enhanced secretion of IL-17a | did not exhibit higher levels of IL-17a secretion; also recorded: did not secrete more IL-17a | 
recombinant IL-6: carrier-free recombinant mouse IL-6 (R&D) (protein, UniProt P08505 25-211, looked up) Interleukin-6: FPTSQVRRGDFTEDTTPNRPVYTTSQVGGLITHVLWEIVEMRKELCNGNSDCMNNDDALAENNLKLPEIQRNDGCYQTGYNQEICLLKISSGLLEYHSYLEYMKNNLKDNKKDKARVLQRDTETLIHIFNQEVKDLHKIVLPTPISNALLTDKLESQKEWLRTKTIQFILKSLEEFLKVTLRSTRQT |  |  |  |  |  |  |  |  |  |  |  |  |  |  |  |  | sufficient to induce IL-17a levels comparable to those of poly(I:C)-injected WT mothers
